Reference: patent US20210330736A1 (UNIVERSITEIT VAN AMSTERDAM, priority 2018, published 2021)
Bridges are numbered along the chain shown (N, C = ends). [ ]: non-standard residue; d: D form. Abu = CC[C@H](N)C(=O)O

Assays:
Format in all cases: cell-based
[1] = system: Th Ser40 phosphorylation in mouse striatum slices; test: Th Ser40 phosphorylation in mouse striatal slices ex vivo (WES automated western); settings: for Fold change (average), P-S40 TH/TTH / effects in striatal slices (significance, in words): 1 h; for Fold change (average), P-S40 TH/TTH: WES; for effects in striatal slices (significance, in words): peptides 10 μM, mouse striatal slices
Excerpt: FIG. 13. Bay 60-7550 and Guanylin synergize to induce Ser40 phosphorylation Analysis of striatal slices treated with indicated compounds. WES data showing the phosphorylation of Th on Serine 40 is shown as well as total Th levels (a). From left to right are sequential striatal slices from rostral to caudal. Every slice is split into left and right hemisphere and either treated with compounds or vehicle. Left a positive and negative control is shown (Neuro2a cells transfected with Th or empty vector). The amount of Th Ser40 is corrected for the amount of total Th and shown in the bar graph (b). Each individual slice is indicated by a different symbol. Signficance is determined using a 2-tailed paired t-test. 2-tailed paired t-test: p=0.006.
Adult mice with an average of 5 weeks were sacrificed and the brain was quickly removed and sliced into coronal sections of 250 μm using a vibratome. Sections containing striatum were micro-dissected to remove non-striatal structures. Hemispheres were separated and one hemisphere was treated with compounds whereas the counter-hemisphere was treated with vehicle. Treatment of slices occurred in carbonized artificial cerebrospinal fluid (aCSF). After treatments, slices were lyzed in SDS containing sample buffer, sonicated, and heated at 95° C. Samples were analyzed on a WES automated western system (Protein Simple) according to manufacturer's instructions.
To investigate the effect of PDE2 inhibition in the mouse brain, an ex-vivo approach using brain slices was utilized. Coronal slices of mouse striatum were prepared and treated with BAY-60 7550 diluted in aCSF and subsequently analyzed by a WES automated western system. […] PDE2 is thus expressed in dopaminergic neurons and PDE2 protein and Th protein are present in the synaptic terminals of the neurons which project from the midbrain dopamine system to the striatum. To investigate the effects of GUCY2C ligands on Th activation, coronal slices of the mouse striatum were prepared, treated with guanylin and analyzed for Th Ser40 phosphorylation as was done for BAY-60-7550. […] The machinery for producing dopamine is thus present in the synaptic terminals where dopamine is released. […] Since both BAY 60-7550 and guanylin increased Th phosphorylation at 10μM, but not at 1 μM, we examined the effect of combining BAY 60-7750 and guanylin at 1μM.

GUCY2C = GUCY2C (Homo sapiens, UniProt P25092); test: GUCY2C ligand analysis in HEK-293 cells transfected with GUCY2C and Th (WES); set-up: expressed in transfected cells; host or cells: HEK-293 cells transfected with GUCY2C and Th; settings: 10 μM, Th Ser40 corrected for total Th, n=3
Chain of GUCY2C (P25092 24-1073): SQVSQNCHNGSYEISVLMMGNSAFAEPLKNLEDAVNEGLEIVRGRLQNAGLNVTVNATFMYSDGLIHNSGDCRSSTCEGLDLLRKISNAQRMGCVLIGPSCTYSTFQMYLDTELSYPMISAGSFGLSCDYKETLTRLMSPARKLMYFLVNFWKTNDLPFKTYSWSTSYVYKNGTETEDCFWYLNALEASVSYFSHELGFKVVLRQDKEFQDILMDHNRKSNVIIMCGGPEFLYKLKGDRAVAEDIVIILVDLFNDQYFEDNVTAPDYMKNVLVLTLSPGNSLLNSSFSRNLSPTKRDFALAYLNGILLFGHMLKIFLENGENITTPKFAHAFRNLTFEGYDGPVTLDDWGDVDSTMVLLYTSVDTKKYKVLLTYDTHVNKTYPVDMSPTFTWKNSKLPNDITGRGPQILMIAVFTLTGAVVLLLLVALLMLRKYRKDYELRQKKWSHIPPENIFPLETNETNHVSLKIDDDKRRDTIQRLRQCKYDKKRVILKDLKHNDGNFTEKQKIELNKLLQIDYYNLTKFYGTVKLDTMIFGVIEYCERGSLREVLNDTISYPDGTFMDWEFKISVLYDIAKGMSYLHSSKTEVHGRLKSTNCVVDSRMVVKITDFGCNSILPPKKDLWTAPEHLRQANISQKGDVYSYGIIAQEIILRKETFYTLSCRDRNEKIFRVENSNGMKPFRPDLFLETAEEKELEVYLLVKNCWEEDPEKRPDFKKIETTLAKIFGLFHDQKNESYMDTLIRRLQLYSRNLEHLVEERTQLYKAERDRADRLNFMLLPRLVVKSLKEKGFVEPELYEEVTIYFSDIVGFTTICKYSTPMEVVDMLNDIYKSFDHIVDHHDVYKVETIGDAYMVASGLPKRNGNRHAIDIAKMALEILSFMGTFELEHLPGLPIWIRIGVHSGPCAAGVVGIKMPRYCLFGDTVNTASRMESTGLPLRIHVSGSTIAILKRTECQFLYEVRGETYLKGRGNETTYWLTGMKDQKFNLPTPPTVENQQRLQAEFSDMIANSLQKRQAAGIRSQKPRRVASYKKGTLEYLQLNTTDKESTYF
Method: Potential GUCY2C ligands were tested in HEK-293 cells transfected with GUCY2C and Th and subsequently treated and analyzed by automated western (WES). Th Ser40 was corrected for total Th. Controls were set to 1. Significance is determined by two-tailed t-test on n=3. * p<0.05, **p<0.01, ***p<0.005, “”p<0.001. A) Guanylin control 10 μM. B) Peptides 1 to 5 in an amount of 10 μM. C) Peptides 6 to 11 in an amount of 10 μM.
We designed novel peptides with different activities with respect to endogenous GUCY2C ligands (Table 3). The peptides were analyzed in Th and GUCY2C transfected HEK-293 cells and subsequently tested ex-vivo in mice striatal slices. […] We synthezised uroguanylin and heat stable toxin as controls for the synthezised peptides and they thus are from a different source than the commercially available uroguanylin and heat stable toxin. […] Possibly the effects of the peptides can differ depending on the area in the striatum which is stimulated.

[2] = system: Ser40 phosphorylation of Th in HEK cells transfected with Th; test: Th Ser40 phosphorylation in HEK cells transfected with Th (western blot); settings: HEK transfected with Th, 500 μM, 48 hours post-plating
Method: FIG. 3. HEK cells are a suitable model to study GUCY2C-induced Ser40 phosphorylation. (A) RT-qPCR data from intact HEK extracts. Input material was 10 ng of total RNA. Cp corresponds to the cycle number in which the expression starts to be considered positive. (−) represents the water control, which is negative in every case. (B) HEK cultures were transfected with Th and treated with a cGMP analogue 48 hours post-plating. Changes in Ser40 phosphorylation were studied. The graph represents the statistical analysis (n=6; Mean±SEM). Unpaired Student's t-test (p-value: ****<0.0001). Hereon, ‘Fold Change’ corresponds to the ratio P-Ser40/Total Th.
(§1) FIG. 7. PDE2a is an important effector regulating Ser40 phosphorylation in MN9D cells. BAY-60-7550 dose-curve and representative examples in MN9D (n=9, red) and HEK cells (n=4, blue) (Mean±SEM). Cells were treated with various concentrations of BAY 60-7750 and analyzed for Th phosphorylation on Ser40 , total Th and actin.
HEK cells were maintained in 100-mm Petri dishes and grown in DMEM medium supplemented with L-glutamine, penicillin-streptomycin (Pen&Strep) and 10% heat-inactivated fetal bovine serum (HIFBS). Growing conditions were 37° C. and 5% CO2. For every-other-day passages, HEK cultures were split at a 1:3 dilution. From Friday to Monday, the split proportion was doubled for all cell lines. For passaging, cultures were rinsed with PBS and incubated with 1 mL of trypsin during 5 minutes. Cells were resuspended in growth medium and finally split to the proper dilution. The experiments were performed in 12-well plates. For immunocytochemistry analysis, sterile 18-mm coverslips were added prior to the plating. 500 !μL of cell resuspension was seeded in each well. If experiments were to be performed 48 hours after the plate preparation, 1:5 was the seeding ratio for HEK cells. When the experiments took place 96 hours post-plating, 1:7 was the working dilution for HEK cells. Unless otherwise stated, HEK cultures were processed 96 hours post-plating.
HEK cells were transfected using the calcium-phosphate method. […]

[3] = system: Ser40 phosphorylation of Th in MN9D cells; test: Th Ser40 phosphorylation in MN9D cells (western blot, P-Ser40/total Th)
Method: FIG. 6. PDE2a is an important effector regulating Ser40 phosphorylation in MN9D cells. MN9D cultures were treated with IBMX or BAY-60-7550 (50 μM), a PDE2A-selective inhibitor. Cells were analyzed on western-blot for phosphorylation of Ser40 , total Th, and actin.
as §1
FIG. 10. PDE11 is an important effector regulating Ser40 phosphorylation in MN9D cells. BC 11-38 dose-curve and representative examples in MN9D (n=2) (Mean±SEM). IBMX served as a control and was used at 100 μM. Cell were analyzed for phosphorylation of Th on Ser40 and total Th was used as a loading control to determine phosphorylation specific effects.
24 hours prior to the administration of the different compounds, cells were serum-starved with DMEM medium supplemented with L-glutamine and Pen&Strep. Unless otherwise stated, the concentration of the different reagents is reported in Table 1 and the duration of the treatment was 1 hour.
Cells were harvested in 150 μL of Laemmli sample buffer (2% SDS, 10% glycerol, 60 mM Tris-Cl pH 6.8, 0.01% bromophenol blue, 50 mM freshly added DTT). Wells were duplicated in pairs and pooled into the same tubes to minimize variability. Samples were sonicated at maximum potency during 3 minutes, heated at 95° C. for 5 minutes and spun down briefly before loading. Running gels were 10% polyacrylamide except for the GUCY2C detection, which was optimal in 7% gels (375 mM Tris-Cl pH 8.8, 0.1% APS, 0.1% SDS, 0.04% TEMED). Stacking gels were 5% polyacrylamide (125 mM Tris-Cl pH 6.8, 0.1% APS, 0.1% SDS, 0.04% TEMED).
Up to 35 μL of sample was loaded in each slot and run in the presence of tris-glycine buffer and 0.1% SDS. Running conditions were 100 V during the first 20 minutes, followed by 160 V until the migration front reached the bottom of the gel. The transference was performed at 100 V onto 0.2 μm nitrocellulose membranes, in the presence of tris-glycine buffer and 20% methanol. The blotting duration was 140 minutes except for the detection of GUCY2C, which was transferred during 240 minutes in the presence of 0.1% SDS. Membranes were then submerged in Ponceau S solution to check blotting efficiency (0.1% Ponceau S, 5% acetic acid). After several washings with DEMI water, blots were incubated during 1 hour in the presence of 5% milk powder and TBS-T (154 mM NaCl, 49.5 mM Tris-Cl pH 7.4, 0.1% Tween-20). The incubation with the primary antibodies was performed O/N at 4° C. in TBS-T (consult Table 2 for dilution and species). Membranes were rinsed in TBS-T during 1 hour to remove the excess antibody. The incubation with the secondary antibodies took place during 60 minutes at room temperature (1:10,000 dilution in TBS-T, with the exception of the goat secondary which was diluted 1:20,000). Secondary antibodies were fused to the horseradish peroxidase and raised against the host species of the primary antibody. After additional washings during 1 hour, blots were exposed to an enhanced chemiluminescence solution and the signal was detected using an Odyssey imager (LI-COR). Band densitometry was performed with LI-COR Image Studio Lite. For graph quantifications, ‘Fold Change’ represents the ratio P-Ser40/Total Th. Statistical comparisons between pair of groups correspond to unpaired Student's t-tests, as calculated with GraphPad Prism. Asterisks denote the following p-values: *<0.05, **<0.01, ***<0.001, ****<0.0001.
IBMX is a non-selective PDE inhibitor, therefore we investigated the effect of inhibiting a specific PDE selectively on Ser40 phosphorylation. To study the effect of PDE2A inhibition on Ser40 phosphorylation we treated the dopaminergic cell-line MN9D with Bay BAY-60-7550 and analyzed the effects. […]

| Compound | Fold change (average), P-S40 TH/TTH ([1]; 10 μM, striatal slices) | Ser40 phosphorylation in HEK-293 cells (significance, in words) (GUCY2C) | other results |
| --- | --- | --- | --- |
| H-NTFYCCELCCAPACTGCY-OH [Peptide 10] | 1.44 | significant effects | – |
| H-NTFYCCELCCNPaCAGCY-OH [Peptide 11] | 1.20 | significant effects | – |
| H-QEECEL[Abu]INMACTGY-OH (cysteine pairing not given here) [Peptide 6] | 0.88 | significant effects | – |
| Nc1nc2c(nc(Br)n2[C@@H]2O[C@@H]3COP(=O)(O)O[C@H]3[C@H]2O)c(=O)[nH]1 [Peptide 8-Bromo-cGMP, 8-Bromo-cGMP] | – | – | P-Ser40 levels upon compound administration [2]: small but significant increase |
| H-NTFYCCELCCNPACAGCY-OH (disulfide 5-10, 6-14, 9-17; ends not checked) [Peptide 9] | 1.37 | significant effects | – |
| H-NDDCELCVNVACTGCLL-OH (disulfide 4-12, 7-15; ends not checked) [Peptide 2] | 2.23 | significant effects | rank of fold change in striatal slices ([1]; 10 μM, striatal slices): largest fold change; effects in striatal slices (significance, in words) [1]: not significant |
| H-NDDCELCVNVACTGCL-OH (disulfide 4-12, 7-15; SMILES CC(C)C[C@H](NC(=O)[C@@H]1CSSC[C@@H]2NC(=O)[C@H](CC(C)C)NC(=O)[C@H](CCC(=O)O)NC(=O)[C@@H](NC(=O)[C@H](CC(=O)O)NC(=O)[C@H](CC(=O)O)NC(=O)[C@@H](N)CC(N)=O)CSSC[C@H](NC(=O)[C@H](C)NC(=O)[C@H](C(C)C)NC(=O)[C@H](CC(N)=O)NC(=O)[C@H](C(C)C)NC2=O)C(=O)N[C@@H]([C@@H](C)O)C(=O)NCC(=O)N1)C(=O)O) [Peptide 1] | – | did not show any significant effects | effects in striatal slices (significance, in words) [1]: did not show any significant effects |
| CCCSc1nc2c(c(=O)n1-c1ccccc1)SCC2 [BC 11-38] | – | – | performance versus IBMX on Ser40 phosphorylation ([3]; IBMX 100 μM as control): performed less well than the positive control IBMX; phosphorylation of Th on Ser40 as compared to total Th (in words) ([3]; dose-curve): increase in the phosphorylation of Th on Ser40 |
| H-QEECELCINMACTGCL-OH (disulfide 4-12, 7-15; ends not checked) [Peptide 8] | 0.89 | significant effects | – |
| H-NDDCELCVNVVCTGCL-OH (disulfide 4-12, 7-15; ends not checked) [Peptide 5] | 1.22 | – | – |
| H-NDCCELCCNVACTGCL-OH [Peptide 4] | 1.00 | significant effects | – |
